# Tests used:
# Assay in all cases: KINOMEscan kinase binding assay
# [1] = molecular target: T1, 384 kinases from the human genome (Homo sapiens, UniProt Q07002); conditions: kinase PCTK3 (Entrez CDK18)
# T1 construct: purchased Eurofin/DiscoverX
# How it was run: (§1)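 A panel of 384 human kinases was profiled by KINOMEscan binding in the presence of 10 µM compound. Kinase–ligand binding was given as percent of DMSO control, averaged from duplicates in a single run, with an S(10) selectivity score.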
# [2] = molecular target: T2, 384 kinases from the human genome (Homo sapiens, UniProt Q9BYP7); conditions: kinase WNK3 (Entrez WNK3)
# T2 construct: purchased Eurofin/DiscoverX
# How it was run: as §1
# [3] = molecular target: T3, 384 kinases from the human genome (Homo sapiens, UniProt P07949); conditions: kinase RET (Entrez RET)
# T3 construct: purchased Eurofin/DiscoverX
# T3 sequence (P07949 29-1114): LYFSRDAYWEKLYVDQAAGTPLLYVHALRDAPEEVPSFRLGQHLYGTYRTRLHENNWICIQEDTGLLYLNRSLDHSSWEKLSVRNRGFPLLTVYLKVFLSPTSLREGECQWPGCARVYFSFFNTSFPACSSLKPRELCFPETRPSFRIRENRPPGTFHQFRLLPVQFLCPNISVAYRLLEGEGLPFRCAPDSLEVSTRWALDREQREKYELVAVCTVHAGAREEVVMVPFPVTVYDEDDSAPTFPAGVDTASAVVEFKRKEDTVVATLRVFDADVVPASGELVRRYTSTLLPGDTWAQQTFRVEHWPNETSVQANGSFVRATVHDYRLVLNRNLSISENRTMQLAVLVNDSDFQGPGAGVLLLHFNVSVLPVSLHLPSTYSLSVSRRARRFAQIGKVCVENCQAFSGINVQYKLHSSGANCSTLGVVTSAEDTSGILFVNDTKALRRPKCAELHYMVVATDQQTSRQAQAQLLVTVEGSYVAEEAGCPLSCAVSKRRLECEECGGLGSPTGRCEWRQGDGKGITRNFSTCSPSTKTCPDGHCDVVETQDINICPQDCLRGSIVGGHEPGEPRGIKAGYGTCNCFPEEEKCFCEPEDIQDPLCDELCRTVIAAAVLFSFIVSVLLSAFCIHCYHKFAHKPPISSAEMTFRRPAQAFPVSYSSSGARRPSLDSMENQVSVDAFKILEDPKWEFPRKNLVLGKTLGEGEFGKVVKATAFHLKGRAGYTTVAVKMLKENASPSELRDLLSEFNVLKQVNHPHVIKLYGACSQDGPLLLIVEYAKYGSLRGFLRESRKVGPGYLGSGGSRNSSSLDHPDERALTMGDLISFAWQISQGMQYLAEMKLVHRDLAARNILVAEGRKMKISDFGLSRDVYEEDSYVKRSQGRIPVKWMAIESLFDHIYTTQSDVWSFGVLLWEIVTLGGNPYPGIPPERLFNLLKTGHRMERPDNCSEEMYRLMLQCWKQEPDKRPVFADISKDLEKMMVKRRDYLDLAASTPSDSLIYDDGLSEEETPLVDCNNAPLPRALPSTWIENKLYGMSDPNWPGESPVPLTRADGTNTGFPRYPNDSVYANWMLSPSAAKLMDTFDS
# How it was run: as §1
# [4] = molecular target: T4, 384 kinases from the human genome (Homo sapiens, UniProt Q86YV6); conditions: kinase MYLK4 (Entrez MYLK4)
# T4 construct: purchased Eurofin/DiscoverX
# How it was run: as §1
# [5] = molecular target: T5, 384 kinases from the human genome (Homo sapiens, UniProt Q13043); conditions: kinase MST1 (Entrez STK4)
# T5 construct: purchased Eurofin/DiscoverX
# How it was run: as §1
# [6] = molecular target: T6, 384 kinases from the human genome (Homo sapiens, UniProt P35626); conditions: kinase GRK3 (Entrez ADRBK2)
# T6 construct: purchased Eurofin/DiscoverX
# How it was run: as §1
# [7] = molecular target: T7, 384 kinases from the human genome (Homo sapiens, UniProt Q9P1W9); conditions: kinase PIM2 (Entrez PIM2)
# T7 construct: purchased Eurofin/DiscoverX
# How it was run: as §1
# [8] = molecular target: T8, 384 kinases from the human genome (Homo sapiens, UniProt P42681); conditions: kinase TXK (Entrez TXK)
# T8 construct: purchased Eurofin/DiscoverX
# How it was run: as §1
# [9] = molecular target: T9, 384 kinases from the human genome (Homo sapiens, UniProt P48730); conditions: kinase CSNK1D (Entrez CSNK1D)
# T9 construct: purchased Eurofin/DiscoverX
# How it was run: as §1
# [10] = molecular target: T10, 384 kinases from the human genome (Homo sapiens, UniProt P21860); conditions: kinase ERBB3 (Entrez ERBB3)
# T10 construct: purchased Eurofin/DiscoverX
# How it was run: as §1
# [11] = molecular target: T11, 384 kinases from the human genome (Homo sapiens, UniProt Q16832); conditions: kinase DDR2 (Entrez DDR2)
# T11 construct: purchased Eurofin/DiscoverX
# How it was run: as §1
# [12] = molecular target: T12, 384 kinases from the human genome (Homo sapiens, UniProt Q14004); conditions: kinase CDC2L5 (Entrez CDK13)
# T12 construct: purchased Eurofin/DiscoverX
# T12 sequence (Q14004 whole entry): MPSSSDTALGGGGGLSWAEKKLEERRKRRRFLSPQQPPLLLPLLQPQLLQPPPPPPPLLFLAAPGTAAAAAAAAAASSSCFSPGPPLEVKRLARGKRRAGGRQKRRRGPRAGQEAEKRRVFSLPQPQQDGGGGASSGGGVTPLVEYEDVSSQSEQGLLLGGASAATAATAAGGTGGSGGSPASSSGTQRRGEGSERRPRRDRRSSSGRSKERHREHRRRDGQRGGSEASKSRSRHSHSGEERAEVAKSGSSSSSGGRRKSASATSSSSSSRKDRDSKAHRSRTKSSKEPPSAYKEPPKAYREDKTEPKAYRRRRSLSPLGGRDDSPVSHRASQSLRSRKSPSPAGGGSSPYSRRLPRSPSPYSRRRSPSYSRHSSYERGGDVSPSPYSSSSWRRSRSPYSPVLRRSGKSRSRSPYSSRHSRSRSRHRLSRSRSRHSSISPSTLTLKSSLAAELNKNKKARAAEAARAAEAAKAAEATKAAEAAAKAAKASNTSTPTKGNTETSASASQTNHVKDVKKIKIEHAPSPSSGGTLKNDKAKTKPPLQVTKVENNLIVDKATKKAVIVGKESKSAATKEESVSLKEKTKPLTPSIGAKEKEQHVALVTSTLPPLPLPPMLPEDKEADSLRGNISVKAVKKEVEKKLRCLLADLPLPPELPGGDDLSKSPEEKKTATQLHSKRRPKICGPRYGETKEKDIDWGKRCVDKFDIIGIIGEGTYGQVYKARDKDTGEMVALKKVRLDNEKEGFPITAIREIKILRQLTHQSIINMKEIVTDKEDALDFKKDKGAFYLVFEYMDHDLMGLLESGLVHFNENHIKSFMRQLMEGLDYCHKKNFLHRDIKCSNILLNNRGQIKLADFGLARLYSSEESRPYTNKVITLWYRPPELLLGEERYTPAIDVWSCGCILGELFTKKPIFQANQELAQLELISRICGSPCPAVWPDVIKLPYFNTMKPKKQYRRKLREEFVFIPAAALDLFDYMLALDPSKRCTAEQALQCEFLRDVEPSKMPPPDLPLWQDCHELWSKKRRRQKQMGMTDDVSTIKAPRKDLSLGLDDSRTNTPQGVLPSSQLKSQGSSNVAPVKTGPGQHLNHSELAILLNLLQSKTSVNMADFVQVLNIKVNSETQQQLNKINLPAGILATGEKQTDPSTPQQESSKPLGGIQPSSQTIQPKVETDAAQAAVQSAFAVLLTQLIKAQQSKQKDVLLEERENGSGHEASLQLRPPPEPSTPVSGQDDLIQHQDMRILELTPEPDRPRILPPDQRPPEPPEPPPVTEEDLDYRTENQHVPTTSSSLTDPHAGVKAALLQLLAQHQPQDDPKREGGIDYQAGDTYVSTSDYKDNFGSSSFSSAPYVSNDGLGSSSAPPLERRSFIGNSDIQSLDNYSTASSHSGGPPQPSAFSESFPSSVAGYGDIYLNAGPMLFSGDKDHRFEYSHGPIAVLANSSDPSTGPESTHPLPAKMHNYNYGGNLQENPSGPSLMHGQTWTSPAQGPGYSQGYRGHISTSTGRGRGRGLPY
# How it was run: as §1
# [13] = molecular target: T13, 384 kinases from the human genome (Homo sapiens, UniProt O00506); conditions: kinase YSK1 (Entrez STK25)
# T13 construct: purchased Eurofin/DiscoverX
# How it was run: as §1
# [14] = molecular target: T14, 384 kinases from the human genome (Homo sapiens, UniProt Q96PN8); conditions: kinase TSSK3 (Entrez TSSK3)
# T14 construct: purchased Eurofin/DiscoverX
# How it was run: as §1
# [15] = molecular target: T15, 384 kinases from the human genome (Homo sapiens, UniProt P31749); conditions: kinase AKT1 (Entrez AKT1)
# T15 construct: purchased Eurofin/DiscoverX
# How it was run: as §1
# [16] = molecular target: T16, 384 kinases from the human genome (Homo sapiens, UniProt Q9Y6M4); conditions: kinase CSNK1G3 (Entrez CSNK1G3)
# T16 construct: purchased Eurofin/DiscoverX
# How it was run: as §1
# [17] = molecular target: T17, 384 kinases from the human genome (Homo sapiens, UniProt O94921); conditions: kinase PFTK1 (Entrez CDK14)
# T17 construct: purchased Eurofin/DiscoverX
# How it was run: as §1
# [18] = molecular target: T18, 384 kinases from the human genome (Homo sapiens, UniProt Q9Y4K4); conditions: kinase MAP4K5 (Entrez MAP4K5)
# T18 construct: purchased Eurofin/DiscoverX
# How it was run: as §1
# [19] = molecular target: T19, 384 kinases from the human genome (Homo sapiens, UniProt P08922); conditions: kinase ROS1 (Entrez ROS1)
# T19 construct: purchased Eurofin/DiscoverX
# How it was run: as §1
# [20] = molecular target: T20, 384 kinases from the human genome (Homo sapiens, UniProt P21709); conditions: kinase EPHA1 (Entrez EPHA1)
# T20 construct: purchased Eurofin/DiscoverX
# How it was run: as §1
# [21] = molecular target: T21, 384 kinases from the human genome (Homo sapiens, UniProt Q9Y3S1); conditions: kinase WNK2 (Entrez WNK2)
# T21 construct: purchased Eurofin/DiscoverX
# How it was run: as §1
# [22] = molecular target: T22, 384 kinases from the human genome (Homo sapiens, UniProt P28482); conditions: kinase ERK2 (Entrez MAPK1)
# T22 construct: purchased Eurofin/DiscoverX
# How it was run: as §1
# [23] = molecular target: T23, 384 kinases from the human genome (Homo sapiens, UniProt P06241); conditions: kinase FYN (Entrez FYN)
# T23 construct: purchased Eurofin/DiscoverX
# T23 sequence (P06241 whole entry): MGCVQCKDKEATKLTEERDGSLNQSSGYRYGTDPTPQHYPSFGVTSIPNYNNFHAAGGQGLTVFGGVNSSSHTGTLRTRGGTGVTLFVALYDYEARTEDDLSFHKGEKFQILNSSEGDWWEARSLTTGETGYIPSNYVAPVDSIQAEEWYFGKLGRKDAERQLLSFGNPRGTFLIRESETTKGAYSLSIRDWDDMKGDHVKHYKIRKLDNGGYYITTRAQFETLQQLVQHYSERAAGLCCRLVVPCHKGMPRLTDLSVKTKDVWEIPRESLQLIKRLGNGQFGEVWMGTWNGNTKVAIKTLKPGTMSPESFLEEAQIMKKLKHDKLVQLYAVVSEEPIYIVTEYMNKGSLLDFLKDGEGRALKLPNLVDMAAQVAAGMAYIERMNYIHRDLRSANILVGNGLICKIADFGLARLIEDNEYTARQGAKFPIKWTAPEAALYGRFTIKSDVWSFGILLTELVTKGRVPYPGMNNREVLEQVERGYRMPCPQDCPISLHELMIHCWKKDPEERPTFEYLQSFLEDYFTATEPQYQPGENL
# How it was run: as §1
# [24] = molecular target: T24, 384 kinases from the human genome (Homo sapiens, UniProt Q15375); conditions: kinase EPHA7 (Entrez EPHA7)
# T24 construct: purchased Eurofin/DiscoverX
# How it was run: as §1
# [25] = molecular target: T25, 384 kinases from the human genome (Homo sapiens, UniProt Q9H0K1); conditions: kinase SIK2 (Entrez SIK2)
# T25 construct: purchased Eurofin/DiscoverX
# T25 sequence (Q9H0K1 whole entry): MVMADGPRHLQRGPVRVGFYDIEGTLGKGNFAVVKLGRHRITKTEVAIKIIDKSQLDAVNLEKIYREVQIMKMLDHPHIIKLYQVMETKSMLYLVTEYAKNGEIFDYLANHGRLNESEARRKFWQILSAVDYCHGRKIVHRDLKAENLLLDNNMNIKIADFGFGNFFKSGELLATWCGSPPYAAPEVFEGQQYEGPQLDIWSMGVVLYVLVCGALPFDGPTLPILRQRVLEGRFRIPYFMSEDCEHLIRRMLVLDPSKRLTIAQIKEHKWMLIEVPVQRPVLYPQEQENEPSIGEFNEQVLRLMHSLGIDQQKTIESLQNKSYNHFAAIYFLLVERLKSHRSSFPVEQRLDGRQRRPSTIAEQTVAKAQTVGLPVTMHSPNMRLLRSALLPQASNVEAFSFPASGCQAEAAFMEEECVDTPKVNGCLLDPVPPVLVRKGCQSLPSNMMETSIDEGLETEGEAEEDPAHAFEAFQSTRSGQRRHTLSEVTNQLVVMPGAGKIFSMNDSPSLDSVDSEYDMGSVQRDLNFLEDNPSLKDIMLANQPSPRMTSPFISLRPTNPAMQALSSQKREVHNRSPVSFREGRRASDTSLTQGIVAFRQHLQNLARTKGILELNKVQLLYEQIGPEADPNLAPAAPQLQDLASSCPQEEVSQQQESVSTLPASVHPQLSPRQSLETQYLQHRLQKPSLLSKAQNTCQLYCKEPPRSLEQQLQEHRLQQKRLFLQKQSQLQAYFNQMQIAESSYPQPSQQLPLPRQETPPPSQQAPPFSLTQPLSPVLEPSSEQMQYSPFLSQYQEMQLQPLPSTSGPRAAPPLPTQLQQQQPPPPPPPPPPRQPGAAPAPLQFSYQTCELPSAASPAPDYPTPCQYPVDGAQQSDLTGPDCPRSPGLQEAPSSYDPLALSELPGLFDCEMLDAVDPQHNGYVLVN
# How it was run: as §1
# [26] = molecular target: T26, 384 kinases from the human genome (Homo sapiens, UniProt Q96SB4); conditions: kinase SRPK1 (Entrez SRPK1)
# T26 construct: purchased Eurofin/DiscoverX
# How it was run: as §1
# [27] = molecular target: T27, 384 kinases from the human genome (Homo sapiens, UniProt Q15835); conditions: kinase GRK1 (Entrez GRK1)
# T27 construct: purchased Eurofin/DiscoverX
# T27 sequence (Q15835 whole entry): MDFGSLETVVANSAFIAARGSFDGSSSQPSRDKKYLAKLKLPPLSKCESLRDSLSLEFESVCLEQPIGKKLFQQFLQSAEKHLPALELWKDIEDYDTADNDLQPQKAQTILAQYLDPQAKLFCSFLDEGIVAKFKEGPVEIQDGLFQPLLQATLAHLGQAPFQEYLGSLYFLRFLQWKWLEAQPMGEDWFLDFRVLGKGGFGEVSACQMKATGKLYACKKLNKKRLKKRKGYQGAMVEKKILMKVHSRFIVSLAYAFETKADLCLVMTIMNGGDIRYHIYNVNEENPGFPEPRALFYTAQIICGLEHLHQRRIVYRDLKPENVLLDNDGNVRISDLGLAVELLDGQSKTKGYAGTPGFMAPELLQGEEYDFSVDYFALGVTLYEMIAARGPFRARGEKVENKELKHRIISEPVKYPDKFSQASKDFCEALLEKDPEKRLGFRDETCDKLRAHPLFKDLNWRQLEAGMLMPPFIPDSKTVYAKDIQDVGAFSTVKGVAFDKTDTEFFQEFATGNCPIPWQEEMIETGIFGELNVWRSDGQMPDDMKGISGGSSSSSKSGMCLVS
# How it was run: as §1
# T1 sequence (Q07002 whole entry): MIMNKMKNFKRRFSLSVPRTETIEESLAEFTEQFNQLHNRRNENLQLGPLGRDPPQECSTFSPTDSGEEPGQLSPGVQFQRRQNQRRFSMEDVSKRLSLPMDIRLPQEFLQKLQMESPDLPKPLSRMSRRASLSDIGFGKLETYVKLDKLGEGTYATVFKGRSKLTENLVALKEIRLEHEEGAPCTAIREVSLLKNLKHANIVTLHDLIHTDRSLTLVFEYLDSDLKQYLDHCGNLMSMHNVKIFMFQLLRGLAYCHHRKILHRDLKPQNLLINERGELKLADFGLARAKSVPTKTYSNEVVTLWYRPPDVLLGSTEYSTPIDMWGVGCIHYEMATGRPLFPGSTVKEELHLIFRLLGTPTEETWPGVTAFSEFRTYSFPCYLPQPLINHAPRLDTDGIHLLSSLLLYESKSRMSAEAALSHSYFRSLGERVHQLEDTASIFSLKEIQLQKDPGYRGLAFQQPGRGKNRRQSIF
structure (smiles),measurement,setting,value
CC(C)C(=O)N1CCN(c2ccc(NC(=O)c3cc4ccccc4o3)cc2Cl)CC1 [Compound 21],Percent Control,[1],96%
same,Percent Control,[2],90%
same,Percent Control,[3],83%
same,Percent Control,[4],99%
same,Percent Control,[5],97%
same,Percent Control,[6],100%
same,Percent Control,[7],100%
same,Percent Control,[8],76%
same,Percent Control,[9],86%
same,Percent Control,[10],83%
same,Percent Control,[11],100%
same,Percent Control,[12],100%
same,Percent Control,[13],100%
same,Percent Control,[14],100%
same,Percent Control,[15],97%
same,Percent Control,[16],100%
same,Percent Control,[17],92%
same,Percent Control,[18],80%
same,Percent Control,[19],94%
same,Percent Control,[20],89%
same,Percent Control,[21],100%
same,Percent Control,[22],97%
same,Percent Control,[23],67%
same,Percent Control,[24],90%
same,Percent Control,[25],77%
same,Percent Control,[26],96%
same,Percent Control,[27],94%
